Assays:
[1] = tested on: R217A mutant lines and background strain mice; experiment: Maximal electroshock procedure (MES); assay type: in vivo, mouse; settings: for responsiveness to anticonvulsant effects: all background strains, mutant, heterozygous mutant and wildtype (all lines)
Description: WT mice were tested at 0.1 mA, HET mice were tested at 0.4 mA and KI mice were tested at 0.7 InA. Each experiment included a no-shock vehicle control group for direct comparison to the concurrent vehicle punished-responding group to determine percent suppression of drinking. […] Sedation was noted by the observer as previously described. […] Electroshock in mice was delivered using corneal electrodes with varied electroshock intensity. Current was delivered (60 Hz sinusoidal current, 11 to 17 mA baseline to peak vs. 50 mA for 0.2 s) using a constant-current stimulator (Wahlquist Instruments, Salt Lake City, Utah). The intensities of current necessary to produce tonic extensor seizures for each mouse strain and mutant lines in all of the mice were determined. These currents were then used for further testing of mice with pregabalin. All dose-response testing was conducted at the previously determined time of peak drug effect. Groups of 10 mice each were give various intraperitoneal doses of pregabalin dissolved in 0.9% saline, diazepam (veh) or phenytoin and given in a volume of 10 ml/kg of body weight. […] At least four groups of mice and each animal was employed once. The animals, pretreated with different doses of the tested drugs, were challenged with one electroshock at previously determined times of peak drug effect (pregabalin: 120 min; diazepam: 60 min; phenytoin; 60 min)

[2] = tested on: α2/δ1 R217A wild type and homozygous mice; experiment: Tail Suspension Test (TST); assay type: in vivo, mouse; settings: R217A mutant vs wildtype mice; dosed 120 minutes prior; FIG. 5
Description: Male α2/δ1 R217A wild type and homozygous mice, weighing 22-35 grams, were used for testing. Animals were maintained on a 12 hour light/dark cycle with food and water available ad libitum. Animals were food deprived overnight the day before testing. On test day, animals were placed by groups of 8 into holding cages to acclimate for sixty minutes prior to dosing. Vehicle or pregabalin was administered 120 minutes prior to testing at a dose volume of 10 mL/kg. At test time, a piece of transparent tape was placed around the distal portion of the tail. The tape was then attached to a hook connected to an electro-mechanical apparatus that recorded the amount of time a mouse moved and the force used during movement. The hook was located at the top of a 24×18 cm testing chamber. Animals were completely suspended in air approximately 5 cm off the floor of the chamber for six minutes. Mean time of struggling and force of movement were then calculated for each group of eight.
Animals are placed by groups of eight into holding cages to acclimate for thirty to sixty minutes prior to dosing. Treatments are generally administered 60 to 120 minutes prior to testing, although this also varies with specific compounds. At test time, a piece of scotch tape is placed around the distal portion of the tail. […]

[3] = tested on: R217A knock-in and wild-type mice; experiment: Chronic constriction injury (CCI)-induced static allodynia, von Frey hairs; assay type: in vivo, mouse; settings: for efficacy in CCI-induced allodynia: 30-100mg/kg, p.o.; for effect on CCI-induced punctate allodynia: sub cutaneous 30-100mg/kg, FIG. 8
Description: Animals were placed in an anaesthetic chamber and anaesthetised with a 2% isofluorane O2 mixture. The right hind thigh is shaved and swabbed with 1% iodine. Animals were then transferred to a homeothermic blanket for the duration of the procedure and anaesthesia maintained during surgery via a nose cone. The skin was cut along the line of the thigh bone. The common sciatic nerve was exposed at the middle of the thigh by blunt dissection through biceps femoris. Proximal to the sciatic trifurcation, about 5mm of nerve was freed by inserting forceps under the nerve and the nerve gently lifted out of the thigh. The forceps were gently opened and closed several times to aid clearance of the fascia from the nerve. Suture was pulled under the nerve using forceps and tied in a simple knot until slight resistance was felt and then double knotted. The procedure was repeated until 3 ligatures (4-0 silk) were tied loosely around the nerve with approx 1 mm spacing. The incision was closed in layers and the wound treated with topical antibiotics.
Animals were habituated to wire test cages prior to the assessment of allodynia. Static allodynia was evaluated by application of von Frey hairs (Stoelting, Wood Dale, Ill., U.S.A.) in ascending order of force ([…], 0.4, 0.6, 1.0, 1.5 and 2.0 g) to the plantar surface of hind paws. Each von Frey hair was applied to the paw for a maximum of 6 seconds, or until a withdrawal response occurred. Once a withdrawal response to a von Frey hair was established, the paw was re-tested, starting with the filament below the one that produced a withdrawal, and subsequently with the remaining filaments in descending force sequence until no withdrawal occurred. Each animal had both hind paws tested in this manner. The lowest amount of force required to elicit a response was recorded as paw withdrawal threshold (PWT) in grams. […]
(§1) Following drug administration PWT were re-assessed for up to 4 h. The static allodynia data is expressed as median force (g) required to induce a paw withdrawal in 6-7 animals per group (vertical bars represent 1st and 3rd quartiles) *P<0.05, **P<0.01***P<0.005 (Mann Whitney U test) from vehicle treated group at each time point.
as §1, with “It was examined whether pregabalin produced an anti-allodynic action in both the knock-in and wild-type mice. […] Baseline (BL) paw withdrawal thresholds (PWT) to von Frey hairs were assessed. Following” for “Following”

[4] = tested on: WT, HET and KI R217A mice and parent strains; experiment: Vogel water-lick conflict; assay type: in vivo, mouse; settings: for minimally effective dose (MED), Vogel: IP (doses tested in mg/kg); for anxiolytic-like effect / punished licking, Vogel: R217A knockins (homozygous)
Description: Two strains used to generate the mutant mice, C57BU6J (Jackson Laboratories), and 129S6/SvEV (Taconic Farms), were also evaluated. Albino or C57BL/6J-Tyr were also included in the experiments for comparison purposes. Male C57BL/6J (Jackson Laboratories), and 129S6/SvEV (Taconic Farms) mice were received at 8 weeks old in quantities sufficient for each study to be completed in one experiment. Parent strains were housed one week prior to testing. All animals were housed in a temperature and humidity controlled room under a 12L: 12D schedule (lights on @06:00 h). All mice were housed in isolators (3-5/cage) with the exception of C57BU6J mice that were housed on wire racks (12/cage).
On the side of each chamber (1.5 in. above the floor) a module optical lickometer was mounted. The lickometer was used to measure licking from a drink tube attached to a water bottle mounted on the exterior of the chamber. A photo beam was piped via glass rods across a gap at the end of the drink tube. The subject's tongue breaks the beam when it drinks from the tube and each lick was automatically recorded. […] The reduced chamber space limited the animal's activity and directed behavior towards the drink tube during a 10-minute session. The front and back of the test chamber was made of clear Plexiglas. The front door was covered to reduce distractions from inside the test room. The back of the test chamber faced a wall, away from the flow of traffic in the testing room, and remained uncovered to provide the opportunity for observations. Shock was delivered between the grid floor and the drink tube using a (Coulbourn) programmable universal shocker for a duration of one second, but terminated immediately when contact between the animal and drink tube was broken.
PROCEDURE: On day one, after 24 hours of water deprivation, experimental subjects were placed in the test chambers and allowed to drink unpunished for a 10-minute training session. Mice were required to complete a 100-150 lick criteria during the training session. Subjects that completed the training criteria prior to the end of the 10-minute session were removed so that drinking was restricted in all subjects to 25% of their total daily intake. […] Immediately after the day one session mice were returned to their home cages and deprived of water and food for an additional 24 hours. On test day two, mice were dosed by intraperitoneal (IP) injection with vehicle or test compound. After a 60 or 120-minute absorption period mice were placed into the test chambers for a 10-minute test session. During the test, shock was delivered on a fixed ratio (FR) 10 schedule. Therefore, after every 10th lick the subject received a mild shock. […] A low number of shock episodes accepted reflects anxiety-related behavior. Standard anxiolytic drugs produce effects that allow mice to overcome the behavioral inhibition and drink despite the shock. […] All data were analyzed using a one-way ANOVA/Dunn's Method.
DRUGS: Pregabalin was dissolved in physiological saline for all experiments. The positive control diazepam was suspended in 2% cremophor in physiological saline. All drugs were dosed in a volume of 10 mL/kg.
C57BL/6J mice were tested at 0.4 mA, C57BL/6J-Tyr mice were tested at 0.1 mA and 129S6/SvEV mice were tested at 0.6 mA. Each dose-response study included a no-shock vehicle control group directly compared to the concurrent vehicle punished-responding group to evaluate the suppression of drinking. […] For all experiments, sedation was noted when both symptoms of ataxia (unsteady gait) and a reduced response to handling were observed after dosing and described as mild, moderate or severe.
WT mice were tested at 0.1 mA, HET mice were tested at 0.4 mA and KI mice were tested at 0.7 InA. Each experiment included a no-shock vehicle control group for direct comparison to the concurrent vehicle punished-responding group to determine percent suppression of drinking.

[5] = tested on: α2/δ1 R217A wild type, heterozygous and homozygous mice; experiment: Formalin foot-pad procedure (formalin-induced hyperalgesia); assay type: in vivo, mouse; settings: PO 120 minutes prior to testing, FIG. 4
Description: Male α2/δ1 R217A wild type, heterozygous, and homozygous mice, weighing 19-40 grams, were used for testing. Animals were maintained on a 12 hour light/dark cycle with food and water available ad libitum. Animals were food deprived overnight the day before testing. On test day, animals were acclimated to the observation chambers for approximately 60 min. The observation chambers were eight inch square boxes consisting of solid, acrylic plastic mirrors for the floor and 3 walls. The fourth wall was clear acrylic that allowed for observation. Animals were dosed PO with either vehicle or pregabalin, 120 minutes prior to testing at a dose volume 10 ml/kg. At test time, animals received a 25 μL injection of a 5% formalin solution in water in the plantar surface of the left hind foot. […] These behaviors were timed using a hand-held stopwatch and recorded at 5 min intervals. Data was analyzed by the two distinct phases of responding. Early phase responding included Minutes 0-10, and late phase responding included Minutes 11-45. The total time spent licking by drug-treated animals in each phase was compared to the total time spent licking by vehicle-treated animals.

[6] = tested on: α2/δ1 in mouse brain membranes; experiment: 3H gabapentin binding to whole mouse brain membranes, R217A mutant vs wildtype; settings: R217A mutant mouse in comparison to wildtype mice; tracer 3H gabapentin; FIG. 3
Description: Membranes were prepared from whole mouse brains. […] Total binding was determined in the absence of competitor. Non-specific binding was determined in the presence of 10 μM unlabeled pregabalin.

SMILES: CC(C)C[C@H](CN)CC(=O)O [pregabalin]
- potency in protecting against seizures ([1]; mutant mice vs wild-type, heterozygous or back-ground strains): less potent
- anticonvulsant effects ([1]; −/− mice as compared to +/+ mice, FIG. 9): reduced
- sensitivity to effects in MES ([1]; −/− mice vs +/+ mice, FIG. 9): less sensitive
- effect in Tail Suspension Test [2]: exerts its sedative and/or anxiolytic effect in TST through the α2/δ1 polypeptide
- efficacy in CCI-induced allodynia ([3]; knock-in animals): failed to demonstrate any efficacy
- effect on CCI-induced punctate allodynia ([3]; knock-in mice): no effect
- efficacy in CCI-induced allodynia ([3]; wild type mice): typical efficacy
- effect on CCI-induced punctate allodynia ([3]; wild type mice): significant blockade
- minimally effective dose (MED), Vogel ([4]; 129S6/SvEv, shock 0.6 mA): 32
- minimally effective dose (MED), Vogel ([4]; C57BL/6J, shock 0.4 mA): 10
- minimally effective dose (MED), Vogel ([4]; C57 albino, shock 0.1 mA): 10
- minimally effective dose (MED), Vogel ([4]; Hets, shock 0.4 mA): 10
- increase in punished responding @ 100, Vogel ([4]; Knockins, dose 100): non-significant
- minimally effective dose (MED), Vogel ([4]; Knockins, shock 0.7 mA): inactive
- anxiolytic-like effect / punished licking, Vogel [4]: does not produce a statistically significant increase
- anxiolytic-like effect / punished licking, Vogel ([4]; listed as Pregabalin): Pregabalin did not produce a significant anxiolytic-like effect in R217A knockins, and no evidence was obtained relating phenotype to particular parent strain
- minimally effective dose (MED), Vogel ([4]; Wild Type, shock 0.1 mA): 32
- efficacy on formalin-induced hyperalgesia [5]: reduced efficacy

SMILES: CN1C(=O)CN=C(c2ccccc2)c2cc(Cl)ccc21 [diazepam]
- responsiveness to anticonvulsant effects ([1]; FIG. 9): fully responsive
- minimally effective dose (MED), Vogel ([4]; 129S6/SvEv, shock 0.6 mA): inactive
- minimally effective dose (MED), Vogel ([4]; C57BL/6J, shock 0.4 mA): 3.2
- minimally effective dose (MED), Vogel ([4]; C57 albino, shock 0.1 mA): 3.2
- minimally effective dose (MED), Vogel ([4]; Hets, shock 0.4 mA): 3.2
- minimally effective dose (MED), Vogel ([4]; Knockins, shock 0.7 mA): inactive
- anxiolytic-like effect / punished licking, Vogel [4]: Diazepam (+ control) failed to produce an anxiolytic-like effect in R217A knockins. Data suggests 129S6-parent strain's genotype may be responsible for pharmacological profile of diazepam
- minimally effective dose (MED), Vogel ([4]; Wild Type, shock 0.1 mA): 3.2

SMILES: O=C1NC(=O)C(c2ccccc2)(c2ccccc2)N1 [phenytoin]
- responsiveness to anticonvulsant effects ([1]; FIG. 9): fully responsive

SMILES: NCC1(CC(=O)O)CCCCC1 [gabapentin, 1-(aminomethyl)cyclohexaneacetic acid]
- gabapentin binding to brain membranes [6]: reduced, or greatly abolished
